Assay results reported in patent US20070149535A1, “Protein kinase inhibitors” (ONCALIS AG, priority 2004, published 2007).

Experiments:
Assay in all cases: Yeast growth assay, specificity profiling
Assay type in all cases: cell-based
Set-up in all cases: key: “−” indicates no growth restoration i.e. no activity against the particular kinase; “+”, “++”, and “+++” indicate activity detected by restoration of growth, classified into three categories of potency; “+”, “++”, and “+++” indicate activity detected by restoration of growth, classified into three categories of potency; “+”, “++”, and “+++” indicate activity detected by restoration of growth, classified into three categories of potency
Conditions in all cases: 7 concentrations between 0.2 and 100 μM
VEGFR1 = biological target: T1, VEGFR1 (Homo sapiens, UniProt P17948)
T1 construct: expressed in transfected cells; host or cells: yeast
Procedure: (§1) Specificity Profiling: Yeast Growth Assay
(§2) The yeast growth assay was performed as described in “Method for the identification and/or validation of receptor tyrosine kinase inhibitors” PCT/CH03/00694 (2004/10/24), section “Modes for Carrying out the Invention, Experiment 1 and Experiment 2.
(§3) Briefly, yeast cells carrying plasmids with the RTK of interest were grown in glucose containing medium (repressing expression). The cultures were diluted into galactose containing medium, which induces the expression of the kinase. Expression of the kinase inhibits growth of the yeast cells, which allows for positive selection of kinase inhibitors restoring growth of cells. Compounds were titrated at 7 concentrations between 0.2 and 100 μM.
(§4) Specificity profiling of compounds, using the yeast growth assay method described above. “−” indicates no growth restoration i.e. no activity against the particular kinase, “+”, “++”, and “+++” indicate activity detected by restoration of growth, classified into three categories of potency according to the maximal level of growth restoration reached and the concentration at which the maximal growth restoration is reached.

VEGFR2 = biological target: T2, VEGFR2 (Homo sapiens, UniProt P35968)
T2 construct: expressed in transfected cells; host or cells: yeast
Procedure: as §1, §2, §3, §4

EphB2 = biological target: T3, EphB2 (Homo sapiens, UniProt P29323)
T3 construct: expressed in transfected cells; host or cells: yeast
T3 sequence (P29323 19-1055): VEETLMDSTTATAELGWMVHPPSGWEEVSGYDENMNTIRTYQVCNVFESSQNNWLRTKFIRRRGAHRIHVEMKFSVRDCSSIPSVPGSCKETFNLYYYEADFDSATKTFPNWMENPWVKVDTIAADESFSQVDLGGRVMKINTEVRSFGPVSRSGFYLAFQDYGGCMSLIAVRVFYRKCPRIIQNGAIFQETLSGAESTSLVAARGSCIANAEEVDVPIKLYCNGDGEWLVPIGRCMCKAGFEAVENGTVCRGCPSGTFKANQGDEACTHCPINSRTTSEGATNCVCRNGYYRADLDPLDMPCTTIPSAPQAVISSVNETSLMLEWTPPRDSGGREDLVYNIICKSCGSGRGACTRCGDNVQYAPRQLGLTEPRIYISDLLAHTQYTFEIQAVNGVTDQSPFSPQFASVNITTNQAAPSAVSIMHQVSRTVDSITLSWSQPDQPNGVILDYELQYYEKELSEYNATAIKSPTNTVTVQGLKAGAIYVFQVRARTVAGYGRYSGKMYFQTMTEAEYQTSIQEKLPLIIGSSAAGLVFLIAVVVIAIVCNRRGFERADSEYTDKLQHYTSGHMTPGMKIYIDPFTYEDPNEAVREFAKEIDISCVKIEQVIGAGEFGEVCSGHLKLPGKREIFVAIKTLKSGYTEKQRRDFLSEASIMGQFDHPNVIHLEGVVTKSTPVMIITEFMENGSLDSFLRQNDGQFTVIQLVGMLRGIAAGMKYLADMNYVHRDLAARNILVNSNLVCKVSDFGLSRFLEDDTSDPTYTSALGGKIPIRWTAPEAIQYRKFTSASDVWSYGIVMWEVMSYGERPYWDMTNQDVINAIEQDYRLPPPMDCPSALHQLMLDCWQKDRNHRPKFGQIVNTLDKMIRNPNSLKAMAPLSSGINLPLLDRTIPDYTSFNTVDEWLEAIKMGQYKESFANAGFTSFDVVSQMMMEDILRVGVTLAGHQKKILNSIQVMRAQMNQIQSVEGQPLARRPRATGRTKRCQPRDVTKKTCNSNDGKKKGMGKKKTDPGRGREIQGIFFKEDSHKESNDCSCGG
Procedure: as §1, §2, §3, §4

EphA2 = biological target: T4, EphA2 (Homo sapiens, UniProt P29317)
T4 construct: expressed in transfected cells; host or cells: yeast
Procedure: as §1, §2, §3, §4

InsR = biological target: T5, InsR (Homo sapiens, UniProt P06213)
T5 construct: expressed in transfected cells; host or cells: yeast
Procedure: as §1, §2, §3, §4

TEK = biological target: T6, TEK (Homo sapiens, UniProt Q02763)
T6 construct: expressed in transfected cells; host or cells: yeast
Procedure: as §1, §2, §3, §4

IGF-1R = biological target: T7, IGF-1R (Homo sapiens, UniProt P08069)
T7 construct: expressed in transfected cells; host or cells: yeast
Procedure: as §1, §2, §3, §4

T4 sequence (P29317 24-976): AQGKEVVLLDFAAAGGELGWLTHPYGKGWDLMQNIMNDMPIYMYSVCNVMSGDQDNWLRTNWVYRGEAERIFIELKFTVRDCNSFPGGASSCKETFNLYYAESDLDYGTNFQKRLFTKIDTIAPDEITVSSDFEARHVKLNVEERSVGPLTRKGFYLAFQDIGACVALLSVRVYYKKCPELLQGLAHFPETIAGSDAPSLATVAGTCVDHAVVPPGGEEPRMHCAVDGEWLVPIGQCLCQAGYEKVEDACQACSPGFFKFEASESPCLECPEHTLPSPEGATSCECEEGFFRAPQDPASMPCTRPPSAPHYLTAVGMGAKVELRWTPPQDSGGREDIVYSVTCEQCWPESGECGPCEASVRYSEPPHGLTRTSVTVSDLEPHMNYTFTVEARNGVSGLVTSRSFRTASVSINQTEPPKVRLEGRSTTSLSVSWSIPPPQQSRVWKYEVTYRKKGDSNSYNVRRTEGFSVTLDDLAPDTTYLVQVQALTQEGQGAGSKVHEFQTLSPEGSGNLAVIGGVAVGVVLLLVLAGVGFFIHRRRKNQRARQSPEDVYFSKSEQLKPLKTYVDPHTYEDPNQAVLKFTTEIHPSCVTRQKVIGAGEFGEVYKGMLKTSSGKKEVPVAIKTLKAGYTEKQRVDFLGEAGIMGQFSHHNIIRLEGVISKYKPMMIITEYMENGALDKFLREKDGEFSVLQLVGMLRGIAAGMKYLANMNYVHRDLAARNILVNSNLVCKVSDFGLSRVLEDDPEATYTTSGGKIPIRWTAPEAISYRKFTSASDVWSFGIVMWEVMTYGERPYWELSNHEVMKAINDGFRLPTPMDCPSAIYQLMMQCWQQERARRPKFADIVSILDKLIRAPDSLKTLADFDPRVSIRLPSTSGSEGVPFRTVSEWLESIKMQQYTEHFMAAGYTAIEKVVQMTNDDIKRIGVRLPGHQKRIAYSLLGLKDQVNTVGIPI
T6 sequence (Q02763 23-1124): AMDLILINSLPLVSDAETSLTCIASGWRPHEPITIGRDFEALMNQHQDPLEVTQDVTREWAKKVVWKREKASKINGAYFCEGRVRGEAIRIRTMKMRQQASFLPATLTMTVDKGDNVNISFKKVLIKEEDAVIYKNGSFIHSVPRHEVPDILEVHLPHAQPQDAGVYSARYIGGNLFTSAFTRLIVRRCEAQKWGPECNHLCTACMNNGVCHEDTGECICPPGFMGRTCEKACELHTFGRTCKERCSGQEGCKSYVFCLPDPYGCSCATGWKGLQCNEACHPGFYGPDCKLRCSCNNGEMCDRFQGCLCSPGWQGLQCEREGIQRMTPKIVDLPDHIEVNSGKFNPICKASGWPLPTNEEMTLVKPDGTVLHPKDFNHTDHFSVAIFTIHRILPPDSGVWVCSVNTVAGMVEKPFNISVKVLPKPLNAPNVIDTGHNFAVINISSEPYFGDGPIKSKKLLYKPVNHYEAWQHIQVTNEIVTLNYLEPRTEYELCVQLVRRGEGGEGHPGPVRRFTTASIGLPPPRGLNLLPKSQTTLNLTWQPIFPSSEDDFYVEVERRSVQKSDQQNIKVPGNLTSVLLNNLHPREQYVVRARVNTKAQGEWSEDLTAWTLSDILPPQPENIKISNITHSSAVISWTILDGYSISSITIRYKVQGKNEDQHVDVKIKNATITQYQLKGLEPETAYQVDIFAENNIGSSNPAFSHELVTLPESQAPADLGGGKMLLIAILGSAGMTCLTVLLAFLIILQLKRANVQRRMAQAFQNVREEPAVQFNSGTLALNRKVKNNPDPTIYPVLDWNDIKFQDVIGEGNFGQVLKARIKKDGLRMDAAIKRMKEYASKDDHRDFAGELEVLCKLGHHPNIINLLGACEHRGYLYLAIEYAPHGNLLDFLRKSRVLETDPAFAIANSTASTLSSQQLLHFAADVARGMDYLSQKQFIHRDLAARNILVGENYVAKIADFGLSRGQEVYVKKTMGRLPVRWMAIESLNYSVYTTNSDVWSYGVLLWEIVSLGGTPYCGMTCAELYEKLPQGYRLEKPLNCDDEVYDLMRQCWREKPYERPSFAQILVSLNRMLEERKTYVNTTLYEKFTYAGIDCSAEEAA
T2 sequence (P35968 20-1356): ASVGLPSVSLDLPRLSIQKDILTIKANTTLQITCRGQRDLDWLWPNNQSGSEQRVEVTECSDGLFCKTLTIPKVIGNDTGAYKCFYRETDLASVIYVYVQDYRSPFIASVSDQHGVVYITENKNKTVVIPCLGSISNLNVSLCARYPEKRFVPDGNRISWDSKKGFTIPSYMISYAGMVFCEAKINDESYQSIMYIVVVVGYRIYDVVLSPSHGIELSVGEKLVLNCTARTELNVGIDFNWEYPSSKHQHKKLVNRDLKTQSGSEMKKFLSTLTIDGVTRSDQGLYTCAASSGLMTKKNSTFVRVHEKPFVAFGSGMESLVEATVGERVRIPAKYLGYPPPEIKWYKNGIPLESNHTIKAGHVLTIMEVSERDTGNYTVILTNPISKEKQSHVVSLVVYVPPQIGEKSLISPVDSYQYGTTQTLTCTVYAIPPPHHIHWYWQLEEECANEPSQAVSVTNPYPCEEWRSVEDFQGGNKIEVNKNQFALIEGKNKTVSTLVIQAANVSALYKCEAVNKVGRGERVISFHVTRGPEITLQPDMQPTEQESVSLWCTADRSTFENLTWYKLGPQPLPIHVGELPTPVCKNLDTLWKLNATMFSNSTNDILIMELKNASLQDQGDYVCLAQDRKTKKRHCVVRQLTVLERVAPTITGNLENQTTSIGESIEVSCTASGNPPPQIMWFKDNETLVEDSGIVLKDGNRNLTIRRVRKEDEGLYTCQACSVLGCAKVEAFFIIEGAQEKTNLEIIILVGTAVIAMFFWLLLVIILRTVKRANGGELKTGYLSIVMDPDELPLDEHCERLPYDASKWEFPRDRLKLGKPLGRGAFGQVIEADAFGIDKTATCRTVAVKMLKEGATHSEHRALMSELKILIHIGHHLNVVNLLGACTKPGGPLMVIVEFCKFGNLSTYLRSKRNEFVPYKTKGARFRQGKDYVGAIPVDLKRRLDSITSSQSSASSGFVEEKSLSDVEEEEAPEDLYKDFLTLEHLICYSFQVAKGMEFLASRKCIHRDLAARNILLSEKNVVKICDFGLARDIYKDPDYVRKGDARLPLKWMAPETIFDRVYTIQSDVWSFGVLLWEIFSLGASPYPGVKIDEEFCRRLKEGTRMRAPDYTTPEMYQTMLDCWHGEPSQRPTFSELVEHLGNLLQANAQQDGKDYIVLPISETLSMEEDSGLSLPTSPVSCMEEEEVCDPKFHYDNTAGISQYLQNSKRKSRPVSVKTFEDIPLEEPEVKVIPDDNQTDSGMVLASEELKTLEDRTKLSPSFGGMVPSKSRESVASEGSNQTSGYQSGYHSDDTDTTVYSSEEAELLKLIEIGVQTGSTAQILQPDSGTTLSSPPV
T1 sequence (P17948 27-1338): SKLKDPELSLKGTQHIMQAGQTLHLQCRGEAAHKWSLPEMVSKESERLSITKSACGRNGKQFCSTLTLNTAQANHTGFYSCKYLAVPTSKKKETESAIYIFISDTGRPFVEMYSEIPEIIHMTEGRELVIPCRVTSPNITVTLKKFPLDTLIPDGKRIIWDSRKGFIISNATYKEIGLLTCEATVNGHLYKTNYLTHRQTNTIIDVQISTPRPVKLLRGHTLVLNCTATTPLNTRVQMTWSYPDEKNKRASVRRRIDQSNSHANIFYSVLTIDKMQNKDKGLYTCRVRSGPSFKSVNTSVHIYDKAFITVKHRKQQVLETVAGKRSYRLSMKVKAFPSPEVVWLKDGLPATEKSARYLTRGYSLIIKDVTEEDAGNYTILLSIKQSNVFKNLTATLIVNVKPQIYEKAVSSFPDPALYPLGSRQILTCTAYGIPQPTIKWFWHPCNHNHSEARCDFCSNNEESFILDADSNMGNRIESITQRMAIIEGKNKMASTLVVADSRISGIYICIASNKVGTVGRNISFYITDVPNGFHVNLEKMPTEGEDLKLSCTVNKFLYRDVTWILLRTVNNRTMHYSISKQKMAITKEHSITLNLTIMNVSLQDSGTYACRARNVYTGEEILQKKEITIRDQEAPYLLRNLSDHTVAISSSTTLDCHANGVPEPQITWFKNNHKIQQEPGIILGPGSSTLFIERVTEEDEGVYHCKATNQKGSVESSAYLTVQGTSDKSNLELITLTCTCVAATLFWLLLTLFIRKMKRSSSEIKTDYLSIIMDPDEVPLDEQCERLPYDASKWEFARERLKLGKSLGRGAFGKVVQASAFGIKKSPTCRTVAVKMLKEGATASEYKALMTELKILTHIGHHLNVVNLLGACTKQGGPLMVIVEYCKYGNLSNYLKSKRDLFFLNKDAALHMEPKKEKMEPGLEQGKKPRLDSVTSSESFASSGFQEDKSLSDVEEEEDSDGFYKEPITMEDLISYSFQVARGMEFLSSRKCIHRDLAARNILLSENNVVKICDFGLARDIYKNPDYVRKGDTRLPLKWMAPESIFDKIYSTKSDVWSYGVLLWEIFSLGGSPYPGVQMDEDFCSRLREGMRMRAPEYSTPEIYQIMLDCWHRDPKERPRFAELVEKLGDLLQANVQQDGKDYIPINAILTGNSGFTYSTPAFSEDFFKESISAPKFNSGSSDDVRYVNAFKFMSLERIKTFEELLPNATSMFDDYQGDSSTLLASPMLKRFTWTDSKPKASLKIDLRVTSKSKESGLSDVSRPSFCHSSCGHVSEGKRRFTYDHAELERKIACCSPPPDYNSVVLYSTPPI

VEGFR1 growth restoration (VEGFR1) | VEGFR2 growth restoration (VEGFR2) | EphB2 growth restoration (EphB2) | EphA2 growth restoration (EphA2) | InsR growth restoration (InsR) | TEK growth restoration (TEK) | IGF-1R growth restoration (IGF-1R) | SMILES
− | − | +++ | + | − | − | − | CC(=O)Nc1ccc(-c2nc3c(C)nccn3c2Nc2cccc(Cl)c2)cc1 [compound 33, N-{4-[3-(3-Chloro-phenylamino)-8-methyl-imidazo[1,2-a]pyrazin-2-yl]-phenyl}-acetamide]
− | − | − | − | − | − | − | COc1cccc(-c2nc3cnccn3c2Nc2cccc(Cl)c2)c1 [compound 7, (3-Chloro-phenyl)-[2-(3-methoxy-phenyl)-imidazo[1,2-a]pyrazin-3-yl]-amine]
− | − | − | − | − | − | − | Clc1cccc(Nc2c(-c3ccccc3)nc3cnccn23)c1 [compound 35, (3-Chloro-phenyl)-(2-phenyl-imidazo[1,2-a]pyrazin-3-yl)-amine]
− | − | +++ | − | − | − | − | Cc1nccn2c(Nc3cccc(F)c3)c(-c3ccccc3)nc12 [compound 44, (3-Fluoro-phenyl)-(8-methyl-2-phenyl-imidazo[1,2-a]pyrazin-3-yl)-amine]
− | − | − | − | − | − | − | Cc1cccc(Nc2c(-c3ccccc3)nc3cnccn23)c1 [compound 34, (2-Phenyl-imidazo[1,2-a]pyrazin-3-yl)-m-tolyl-amine]
− | − | − | − | − | − | − | Brc1cccc(Nc2c(-c3ccccc3)nc3cnccn23)c1 [compound 14, (3-Bromo-phenyl)-(2-phenyl-imidazo[1,2-a]pyrazin-3-yl)-amine]
− | − | ++ | + | − | − | − | CC(=O)Nc1ccc(-c2nc3cnccn3c2Nc2cccc(Cl)c2)cc1 [compound 8, N-{4-[3-(3-Chloro-phenylamino)-imidazo[1,2-a]pyrazin-2-yl]-phenyl}-acetamide]
− | − | − | − | − | − | − | CNc1nccn2c(Nc3cccc(Cl)c3)c(-c3ccccc3)nc12 [compound 20, N′3-(3-Chloro-phenyl)-N′8-methyl-2-phenyl-imidazo[1,2-a]pyrazine-3,8-diamine]
− | − | +++ | + | − | − | − | COc1cccc(-c2nc3c(C)nccn3c2Nc2cccc(C)c2)c1 [compound 42, [2-(3-Methoxy-phenyl)-8-methyl-imidazo[1,2-a]pyrazin-3-yl]-m-tolyl-amine]
− | − | ++ | − | − | − | − | Cc1nccn2c(Nc3ccc(F)c(F)c3)c(-c3ccccc3)nc12 [compound 45, (3,4-Difluoro-phenyl)-(8-methyl-2-phenyl-imidazo[1,2-a]pyrazin-3-yl)-amine]
− | − | − | − | − | − | − | Clc1ccc(Nc2c(-c3ccccc3)nc3cnccn23)cc1 [compound 16, (4-Chloro-phenyl)-(2-phenyl-imidazo[1,2-a]pyrazin-3-yl)-amine]
+ | − | ++ | + | + | − | − | c1ccc(Nc2c(-c3ccc(N4CCOCC4)cc3)nc3cnccn23)cc1 [compound 38, [2-(4-Morpholin-4-yl-phenyl)-imidazo[1,2-a]pyrazin-3-yl]-phenyl-amine]
− | − | + | − | − | − | − | Fc1cccc(Nc2c(-c3ccccc3)nc3cnccn23)c1 [compound 26, (3-Fluoro-phenyl)-(2-phenyl-imidazo[1,2-a]pyrazin-3-yl)-amine]
